Reference: article PMC10824489 (Journal of medicinal chemistry, 2023)
“Also recorded” adds a separate entry of the source.

Experiments:
VAP-1 = biological target: T1, VAP-1 (Mus musculus, UniProt O70423); experiment: VAP-1 oxidation assay in mouse aorta homogenates; conditions: for Concentration of 16e in mouse aorta homogenates: substrate 16e 100 μM
T1 sequence (O70423 1-765): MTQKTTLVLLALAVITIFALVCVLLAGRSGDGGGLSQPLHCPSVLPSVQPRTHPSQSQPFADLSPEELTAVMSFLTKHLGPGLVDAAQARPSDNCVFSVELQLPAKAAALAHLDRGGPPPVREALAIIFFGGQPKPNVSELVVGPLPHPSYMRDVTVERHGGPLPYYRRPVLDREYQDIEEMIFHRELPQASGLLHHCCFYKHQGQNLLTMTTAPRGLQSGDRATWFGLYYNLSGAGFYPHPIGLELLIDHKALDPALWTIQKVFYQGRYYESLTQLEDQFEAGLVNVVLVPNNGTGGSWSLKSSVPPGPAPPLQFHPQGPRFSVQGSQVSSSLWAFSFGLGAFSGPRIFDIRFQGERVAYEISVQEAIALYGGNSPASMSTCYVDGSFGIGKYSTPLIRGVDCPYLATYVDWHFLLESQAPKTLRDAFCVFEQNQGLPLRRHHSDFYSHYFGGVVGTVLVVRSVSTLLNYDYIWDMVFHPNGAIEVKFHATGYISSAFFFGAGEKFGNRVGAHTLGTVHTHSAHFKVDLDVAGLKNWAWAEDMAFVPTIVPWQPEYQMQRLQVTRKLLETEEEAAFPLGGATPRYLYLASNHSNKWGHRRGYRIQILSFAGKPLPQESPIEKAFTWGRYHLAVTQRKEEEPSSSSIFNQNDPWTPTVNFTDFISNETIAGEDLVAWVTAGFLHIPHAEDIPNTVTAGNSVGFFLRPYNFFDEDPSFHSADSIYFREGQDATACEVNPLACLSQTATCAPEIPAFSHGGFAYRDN

RPE65 [1] = biological target: RPE65 (Bos taurus, UniProt Q28175); experiment: RPE65 activity assay in vitro; format: biochemical, bovine; conditions: for inhibition of RPE65 in vitro: concentration range 0.1-50 μM
RPE65 (Bos taurus, UniProt Q28175), sequence (Q28175 whole entry): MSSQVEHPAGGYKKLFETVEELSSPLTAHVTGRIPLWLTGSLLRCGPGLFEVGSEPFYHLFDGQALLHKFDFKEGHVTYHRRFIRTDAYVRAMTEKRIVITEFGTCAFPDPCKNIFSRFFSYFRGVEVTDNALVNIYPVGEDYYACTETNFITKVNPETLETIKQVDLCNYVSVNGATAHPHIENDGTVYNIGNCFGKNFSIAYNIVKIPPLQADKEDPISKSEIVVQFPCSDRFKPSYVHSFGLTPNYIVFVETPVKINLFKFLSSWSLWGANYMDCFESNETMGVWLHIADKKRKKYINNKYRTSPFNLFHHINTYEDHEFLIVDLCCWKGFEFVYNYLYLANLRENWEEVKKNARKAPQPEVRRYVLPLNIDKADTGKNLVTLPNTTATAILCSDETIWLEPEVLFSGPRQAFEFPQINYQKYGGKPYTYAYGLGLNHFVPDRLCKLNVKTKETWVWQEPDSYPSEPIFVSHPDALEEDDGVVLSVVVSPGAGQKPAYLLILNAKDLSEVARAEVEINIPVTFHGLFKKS

CYP-450 enzymes = experiment: Liver microsomes assay
in vivo = conditions: C57BL/6J, mouse, serum, intraperitoneal, 10 mg/kg
RPE65 [2] = biological target: T2, RPE65 (Mus musculus, UniProt Q91ZQ5); conditions: 10 mg/kg IP; for RPE65 inhibition in vivo (in words): BALB/cJ mice; for 11cRAL level in eye / RE level in eye: four hours of dark adaptation after light exposure, mean ± SD, n=3
T2 sequence (Q91ZQ5 1-533): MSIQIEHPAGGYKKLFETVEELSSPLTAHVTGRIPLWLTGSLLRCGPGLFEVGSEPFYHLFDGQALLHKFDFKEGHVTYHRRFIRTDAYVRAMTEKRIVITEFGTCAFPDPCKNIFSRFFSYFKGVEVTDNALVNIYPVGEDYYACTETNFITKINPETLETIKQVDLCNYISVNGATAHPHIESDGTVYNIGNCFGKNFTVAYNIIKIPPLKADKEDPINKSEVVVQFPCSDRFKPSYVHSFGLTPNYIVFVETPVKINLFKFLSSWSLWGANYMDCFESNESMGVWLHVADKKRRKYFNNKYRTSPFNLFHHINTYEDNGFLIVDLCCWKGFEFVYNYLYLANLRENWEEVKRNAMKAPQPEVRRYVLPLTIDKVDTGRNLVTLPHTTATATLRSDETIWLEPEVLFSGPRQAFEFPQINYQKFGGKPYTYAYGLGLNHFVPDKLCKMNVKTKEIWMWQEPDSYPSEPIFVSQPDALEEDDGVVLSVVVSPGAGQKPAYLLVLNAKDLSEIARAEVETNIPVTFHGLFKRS

O=CC=Cc1cccc(OCC2CCCCC2)c1 [ACU-5201]
Concentration of deaminated product ACU-5201 in mouse aorta homogenates (VAP-1; formed from substrate 3a, time 0): 0.00 ± 0.00 µM
Concentration of deaminated product ACU-5201 in mouse aorta homogenates (VAP-1; formed from substrate 3a, time 1): 19.71 ± 0.29 µM
Concentration of deaminated product ACU-5201 in mouse aorta homogenates (VAP-1; formed from substrate 3a, time 4): 54.81 ± 6.38 µM
Concentration of deaminated product ACU-5201 in mouse aorta homogenates (VAP-1; formed from substrate 16e, time 1): 0.48 ± 0.68 µM
Concentration of deaminated product ACU-5201 in mouse aorta homogenates (VAP-1; formed from substrate 16e, time 4): 3.76 ± 0.29 µM

NC(CCO)c1cccc(OCC2CCCCC2)c1 (stereo not shown) [6a, 3-Amino-3-(3-(cyclohexylmethoxy)phenyl)propan-1-ol]
inhibition of RPE65 in vitro (RPE65 [1]): lack of inhibitory activity; also recorded: no inhibition

CNCCC(O)c1cccc(OCC2CCCCC2)c1 (stereo not shown) [16e, 1-(3-(Cyclohexylmethoxy)phenyl)-3-(methylamino)propan-1-ol]
hepatic clearance relative to 3a (CYP-450 enzymes; Cint ratio): 5.5 times
rate of liver metabolism relative to 3a (CYP-450 enzymes; Vmax ratio): 1.7 times
demethylation to 3a in liver microsomes (CYP-450 enzymes; one-hour exposure, 200 μM): minor amount of demethylation
concentration at 24 h (in vivo): 0 nM
Concentration of 16e in mouse aorta homogenates (VAP-1; time 0): 100.32 ± 0.95 µM
Concentration of 16e in mouse aorta homogenates (VAP-1; time 1): 101.20 ± 0.89 µM
11cRAL per eye as % of the dark adapted (DA) level (RPE65 [2]; 24 hours post treatment): 53%
RPE65 inhibition in vivo (in words) (RPE65 [2]): potent RPE65 inhibition

CC(CCN)c1cccc(OCC2CCCCC2)c1 (stereo not shown) [16b, 3-(3-(Cyclohexylmethoxy)phenyl)butan-1-amine]
RPE65 inhibition in vivo (in words) (RPE65 [2]): minor RPE65 inhibition
non-specific toxicity observation (RPE65 [2]; all animals, even 24 hours after treatment): impaired body movement
11cRAL level in eye (RPE65 [2]): 253.5 ± 9.0 pmol/eye
RE level in eye (RPE65 [2]): 85.6 ± 12.7 pmol/eye

NC(CO)Cc1cccc(OCC2CCCCC2)c1 (stereo not shown) [6b, 2-Amino-3-(3-(cyclohexylmethoxy)phenyl)propan-1-ol]
inhibition of RPE65 in vitro (RPE65 [1]): no inhibition

CC(CN)Cc1cccc(OCC2CCCCC2)c1 (stereo not shown) [16c, (3-(Cyclohexylmethoxy)phenyl)-2-methylpropan-1-amine]
RPE65 inhibition in vivo (in words) (RPE65 [2]): minor RPE65 inhibition
11cRAL level in eye (RPE65 [2]): 370.5 ± 9.1 pmol/eye
RE level in eye (RPE65 [2]): 123.9 ± 36.4 pmol/eye

NC(CO)Cc1ccc(OCC2CCCCC2)cc1 (stereo not shown) [6c, 2-Amino-3-(4-(cyclohexylmethoxy)phenyl)propan-1-ol]
inhibition of RPE65 in vitro (RPE65 [1]): lack of dose-response relationship

NCCc1cccc(OCC2CCCCC2)c1 [11b, 2-(3-(Cyclohexylmethoxy)phenyl)ethan-1-amine]
potency towards RPE65 relative to amine 11a (RPE65 [1]; ratio of IC50 values): 7.6 times
RPE65 inhibition in vivo (in words) (RPE65 [2]): did not display hallmarks of inhibited RPE65 activity
